Source: ChEMBL document CHEMBL1201862, “PubChem BioAssay data set” (2004)
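Test compounds were applied to cells in 96-well plates for 48 hours at 5 doses. At the GI50, growth is halved.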 Active and inactive are the calls of the source. Rule as the data show it: active = GI50 up to about 1.1 µM and inactive = higher.

How the values were obtained:
Assay in all cases: NCI-60 cell line screen, 48 h
SNB-75 = system: SNB-75
OVCAR-5 = system: OVCAR-5
IGROV-1 = system: IGROV-1
UO-31 = system: UO-31
SW-620 = system: SW-620
COLO 205 = system: COLO 205
TK-10 = system: TK-10
MDA-MB-231 = system: MDA-MB-231
OVCAR-8 = system: OVCAR-8
U-251 = system: U-251
NCI-H460 = system: NCI-H460
PC-3 = system: PC-3
A498 = system: A498
SR = system: SR
Malme-3M = system: Malme-3M
Hs-578T = system: Hs-578T
MCF7 = system: MCF7
786-0 = system: 786-0
RXF 393 = system: RXF 393
HOP-62 = system: HOP-62
KM12 = system: KM12
OVCAR-4 = system: OVCAR-4
HCC 2998 = system: HCC 2998
EKVX = system: EKVX
UACC-62 = system: UACC-62
SK-MEL-5 = system: SK-MEL-5
CAKI-1 = system: CAKI-1
CCRF-CEM = system: CCRF-CEM
SF-268 = system: SF-268
NCI-H522 = system: NCI-H522
NCI-H226 = system: NCI-H226
SF-539 = system: SF-539
UACC-257 = system: UACC-257
A549 = system: A549
OVCAR-3 = system: OVCAR-3
HCT-116 = system: HCT-116
HOP-92 = system: HOP-92
K562 = system: K562
MDA-MB-435 = system: MDA-MB-435
RPMI-8226 = system: RPMI-8226
NCI-H23 = system: NCI-H23
LOX IMVI = system: LOX IMVI
M14 = system: M14
HCT-15 = system: HCT-15
ACHN = system: ACHN
T47D = system: T47D
BT-549 = system: BT-549
MDA-N = system: MDA-N
SN12C = system: SN12C
SNB-19 = system: SNB-19
NCI/ADR-RES = system: NCI/ADR-RES
SK-MEL-2 = system: SK-MEL-2
SF-295 = system: SF-295
HT-29 = system: HT-29
MOLT-4 = system: MOLT-4
SK-OV-3 = system: SK-OV-3
DU-145 = system: DU-145
HL-60 = system: HL-60
SK-MEL-28 = system: SK-MEL-28

Structure (SMILES): O=c1[nH]c2ccccc2c2oc(-c3ccccc3)nc12
- GI50 (SNB-75): 20.2 µM (inactive)
- GI50 (OVCAR-5): > 100 µM (inactive)
- GI50 (IGROV-1): > 100 µM (inactive)
- GI50 (UO-31): > 100 µM (inactive)
- GI50 (SW-620): 22.9 µM (inactive)
- GI50 (COLO 205): 18.6 µM (inactive)
- GI50 (TK-10): 54.6 µM (inactive)
- GI50 (MDA-MB-231): 17.3 µM (inactive)
- GI50 (OVCAR-8): 22.4 µM (inactive)
- GI50 (U-251): 24.7 µM (inactive)
- GI50 (NCI-H460): > 100 µM (inactive)
- GI50 (PC-3): > 100 µM (inactive)
- GI50 (A498): 27 µM (inactive)
- GI50 (SR): 15.9 µM (inactive)
- GI50 (Malme-3M): > 100 µM (inactive)
- GI50 (Hs-578T): 25.1 µM (inactive)
- GI50 (MCF7): 44.8 µM (inactive)
- GI50 (786-0): 23.6 µM (inactive)
- GI50 (RXF 393): 20.4 µM (inactive)
- GI50 (HOP-62): 15.8 µM (inactive)
- GI50 (KM12): 50.5 µM (inactive)
- GI50 (OVCAR-4): 60.7 µM (inactive)
- GI50 (HCC 2998): > 100 µM (inactive)
- GI50 (EKVX): > 100 µM (inactive)
- GI50 (UACC-62): 88.3 µM (inactive)
- GI50 (SK-MEL-5): 30.5 µM (inactive)
- GI50 (CAKI-1): 18.9 µM (inactive)
- GI50 (CCRF-CEM): 18.4 µM (inactive)
- GI50 (SF-268): 21.3 µM (inactive)
- GI50 (NCI-H522): 61.5 µM (inactive)
- GI50 (NCI-H226): 88.9 µM (inactive)
- GI50 (SF-539): 16.7 µM (inactive)
- GI50 (UACC-257): > 100 µM (inactive)
- GI50 (A549): 47.6 µM (inactive)
- GI50 (OVCAR-3): > 100 µM (inactive)
- GI50 (HCT-116): 24 µM (inactive)
- GI50 (HOP-92): 28.5 µM (inactive)
- GI50 (K562): 36.1 µM (inactive)
- GI50 (MDA-MB-435): 18.4 µM (inactive)
- GI50 (RPMI-8226): 27.9 µM (inactive)
- GI50 (NCI-H23): 65.8 µM (inactive)
- GI50 (LOX IMVI): 21.3 µM (inactive)
- GI50 (M14): > 100 µM (inactive)
- GI50 (HCT-15): > 100 µM
- GI50 (ACHN): > 100 µM (inactive)
- GI50 (T47D): 51.2 µM (inactive)
- GI50 (BT-549): 31.2 µM (inactive)
- GI50 (MDA-N): 20.2 µM (inactive)
- GI50 (SN12C): 16.5 µM (inactive)
- GI50 (SNB-19): 26.1 µM (inactive)
- GI50 (NCI/ADR-RES): > 100 µM (inactive)
- GI50 (SK-MEL-2): 24.2 µM (inactive)
- GI50 (SF-295): 23.9 µM (inactive)
- GI50 (HT-29): > 100 µM (inactive)
- GI50 (MOLT-4): 26.6 µM (inactive)
- GI50 (SK-OV-3): 37.2 µM (inactive)

Structure (SMILES): O=C1c2cccnc2S(=O)(=O)N1c1ccc(Oc2ccccc2)cc1
- GI50 (SNB-75): > 100 µM (inactive)
- GI50 (OVCAR-5): > 100 µM (inactive)
- GI50 (IGROV-1): > 100 µM (inactive)
- GI50 (UO-31): > 100 µM (inactive)
- GI50 (SW-620): > 100 µM (inactive)
- GI50 (COLO 205): > 100 µM (inactive)
- GI50 (MDA-MB-231): > 100 µM (inactive)
- GI50 (DU-145): > 100 µM (inactive)
- GI50 (OVCAR-8): > 100 µM (inactive)
- GI50 (U-251): > 100 µM (inactive)
- GI50 (NCI-H460): > 100 µM (inactive)
- GI50 (PC-3): 72.3 µM (inactive)
- GI50 (A498): > 100 µM (inactive)
- GI50 (SR): 80 µM (inactive)
- GI50 (Malme-3M): > 100 µM (inactive)
- GI50 (MCF7): > 100 µM (inactive)
- GI50 (786-0): > 100 µM (inactive)
- GI50 (RXF 393): 69.7 µM (inactive)
- GI50 (HOP-62): > 100 µM (inactive)
- GI50 (KM12): > 100 µM (inactive)
- GI50 (OVCAR-4): > 100 µM (inactive)
- GI50 (HCC 2998): > 100 µM (inactive)
- GI50 (EKVX): > 100 µM (inactive)
- GI50 (UACC-62): > 100 µM (inactive)
- GI50 (CAKI-1): 51.8 µM (inactive)
- GI50 (CCRF-CEM): 90.4 µM (inactive)
- GI50 (SF-268): > 100 µM (inactive)
- GI50 (NCI-H522): > 100 µM (inactive)
- GI50 (NCI-H226): > 100 µM (inactive)
- GI50 (SF-539): > 100 µM (inactive)
- GI50 (UACC-257): 92.7 µM (inactive)
- GI50 (A549): 91.8 µM (inactive)
- GI50 (OVCAR-3): > 100 µM (inactive)
- GI50 (HCT-116): > 100 µM (inactive)
- GI50 (HOP-92): > 100 µM (inactive)
- GI50 (K562): > 100 µM (inactive)
- GI50 (MDA-MB-435): > 100 µM (inactive)
- GI50 (RPMI-8226): > 100 µM (inactive)
- GI50 (NCI-H23): > 100 µM (inactive)
- GI50 (M14): > 100 µM (inactive)
- GI50 (HCT-15): > 100 µM
- GI50 (HL-60): > 100 µM (inactive)
- GI50 (ACHN): > 100 µM (inactive)
- GI50 (T47D): > 100 µM (inactive)
- GI50 (BT-549): > 100 µM (inactive)
- GI50 (SK-MEL-28): > 100 µM (inactive)
- GI50 (MDA-N): > 100 µM (inactive)
- GI50 (SN12C): > 100 µM (inactive)
- GI50 (SNB-19): > 100 µM (inactive)
- GI50 (NCI/ADR-RES): > 100 µM (inactive)
- GI50 (SK-MEL-2): > 100 µM (inactive)
- GI50 (SF-295): > 100 µM (inactive)
- GI50 (HT-29): > 100 µM (inactive)
- GI50 (MOLT-4): 92 µM (inactive)
- GI50 (SK-OV-3): 41.4 µM (inactive)

Structure (SMILES): COc1cc(Nc2nc3cc(C(F)(F)F)ccc3n3cccc23)cc(OC)c1OC
- GI50 (SNB-75): > 100 µM (inactive)
- GI50 (OVCAR-5): > 100 µM (inactive)
- GI50 (IGROV-1): > 100 µM (inactive)
- GI50 (UO-31): > 100 µM (inactive)
- GI50 (SW-620): > 100 µM (inactive)
- GI50 (COLO 205): > 100 µM (inactive)
- GI50 (TK-10): > 100 µM (inactive)
- GI50 (DU-145): > 100 µM (inactive)
- GI50 (OVCAR-8): > 100 µM (inactive)
- GI50 (U-251): > 100 µM (inactive)
- GI50 (PC-3): > 100 µM (inactive)
- GI50 (A498): > 100 µM (inactive)
- GI50 (Malme-3M): > 100 µM (inactive)
- GI50 (Hs-578T): > 100 µM (inactive)
- GI50 (MCF7): > 100 µM (inactive)
- GI50 (RXF 393): 3.93 µM (inactive)
- GI50 (HOP-62): > 100 µM (inactive)
- GI50 (HCC 2998): > 100 µM (inactive)
- GI50 (EKVX): > 100 µM (inactive)
- GI50 (UACC-62): > 100 µM (inactive)
- GI50 (SK-MEL-5): 26.7 µM (inactive)
- GI50 (CAKI-1): > 100 µM (inactive)
- GI50 (CCRF-CEM): 4.54 µM (inactive)
- GI50 (SF-268): > 100 µM (inactive)
- GI50 (NCI-H522): > 100 µM (inactive)
- GI50 (SF-539): > 100 µM (inactive)
- GI50 (UACC-257): > 100 µM (inactive)
- GI50 (A549): > 100 µM (inactive)
- GI50 (OVCAR-3): > 100 µM (inactive)
- GI50 (HCT-116): > 100 µM (inactive)
- GI50 (HOP-92): > 100 µM (inactive)
- GI50 (K562): > 100 µM (inactive)
- GI50 (MDA-MB-435): 9.46 µM (inactive)
- GI50 (RPMI-8226): > 100 µM (inactive)
- GI50 (NCI-H23): > 100 µM (inactive)
- GI50 (M14): 17.8 µM (inactive)
- GI50 (HCT-15): > 100 µM
- GI50 (HL-60): 0.762 µM (active)
- GI50 (ACHN): > 100 µM (inactive)
- GI50 (T47D): 2.96 µM (inactive)
- GI50 (BT-549): 89.5 µM (inactive)
- GI50 (SK-MEL-28): > 100 µM (inactive)
- GI50 (MDA-N): > 100 µM (inactive)
- GI50 (SN12C): 32.4 µM (inactive)
- GI50 (SNB-19): > 100 µM (inactive)
- GI50 (NCI/ADR-RES): 9.4 µM (inactive)
- GI50 (SK-MEL-2): > 100 µM (inactive)
- GI50 (SF-295): 5.02 µM (inactive)
- GI50 (MOLT-4): 8.49 µM (inactive)
- GI50 (SK-OV-3): > 100 µM (inactive)
